{"source": "paper PMC10214526", "about": "“Semisynthetic LC3 Probes for Autophagy Pathways Reveal a Noncanonical LC3 Interacting Region Motif Crucial for the Enzymatic Activity of Human ATG3” (ACS Central Science, 2023)", "key": {"[1]": {"assay": "Circular dichroism spectroscopy of LIR^ATG3 peptides", "format": "physicochemical", "details": "700 μM peptide, 20 mM potassium phosphate pH 7.2, 20 °C, 180-300 nm, 5x averaged", "from_the_text": "Farnung et al. Supplementary Information […]\nH Capping with O H Resin cleavage O H Cyclization O […]\nacid anhydride deprotection\nFigure S11. Preparation of cyclized LIRATG3 peptide 6. a, Synthetic scheme describing the preparation of 6.\nA cysteine residue is introduced at the C-terminus of the LIR motif. Following standard Fmoc-SPPS the LIR peptide is capped at its N-terminus with α-chloroacetic acid anhydride. Following resin cleavage, the peptide is cyclized by cysteine alkylation. b, Analytical RP-HPLC chromatograms showing the cyclization of the LIR […]\npeptide to provide 6. […] Middle chromatogram\nFigure S12. CD spectra of linear and cyclic LIR ATG3 peptides 5 and 6. CD spectra of LIRATG3 peptides 5 and 6 were recorded in 20 mM KPhos buffer (pH 7.2) at a concentration of 700 μM. Cyclized LIRATG3 peptide 6 […]\nnm and an increase in band intensity at 215 nm.\nPlasmid Supplier Identiﬁer Dilution\nAnti-ATG5 Cell-Signalling #D5F5U 1:1,000\nAnti-β-Actin Thermo-Fisher #BA3R 1:2,000\nTable S2 Antibodies used in this study.\n2.9. Circular dichroism spectroscopy\nCD spectra were recorded on a JASCO J-1500 CD spectrometer in a 0.1 cm cuvette. Samples were measured in potassium phosphate (20 mM, pH 7.2) at 20 °C. Data were recorded between 180-300 nm with a measuring speed of 20 nm/min. Measurements were repeated (5x) and averaged.\nBackground spectrum was recorded and subtracted from measured spectra. […]"}, "[2]": {"target": "T1, ATG3 C1–GABARAP (probe 2) complex formation (Homo sapiens, UniProt O95166)", "T1 construct": "SUMO2 (N, cleaved yes); Mxe GyrA intein-His6 (C, cleaved yes); made in house; host or cells: E. coli Rosetta-CodonPlus (DE3)-RIL", "T1 sequence (O95166 1-115 limits assumed, one chain of several)": "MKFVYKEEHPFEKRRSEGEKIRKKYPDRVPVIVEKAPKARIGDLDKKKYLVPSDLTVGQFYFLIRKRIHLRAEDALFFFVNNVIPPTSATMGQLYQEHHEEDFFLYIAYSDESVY", "assay": "Competition assay: LIR^ATG3 peptides vs cross-linking of GABARAP methyl fumarate probe 2 with ATG3 C1", "format": "biochemical", "details": "probe 2 (15 μM) with ATG3 C1 in the presence of increasing amounts of peptide", "experimental": "To exclude an effect of LIR deletion on protein activity we performed a competition experiment with chemically prepared LIR (L94-H112) peptide 5. Probe 2 (15 μM) was incubated with ATG3 C1 in the presence of increasing amounts of 5. […] We also postulated that cyclization of the LIR peptide would recapitulate its β-sheet conformation and lead to tighter binding than the linear peptide due to preorganization.[37] […] Cyclic peptide 6 was prepared by solid-phase peptide synthesis followed by cyclization using selective cysteine alkylation (Figure S11).[39],[40] […] Additionally, we confirmed the interaction of LIR^ATG3 peptides with GABARAP and LC3A by fluorescence polarization (Figure 2e–g). LIR^ATG3-derived peptides bind to both LC3A and GABARAP. As indicated by the competition experiments, cyclic peptides bound markedly tighter to GABARAP and LC3A than the linear peptides. […]\nFigure 2 Characterization of LIR^ATG3. a. […] Quantification of competition assays shown in b and c. The amount of GABARAP–ATG3 C1 complex was quantified by gel-densitometry and normalized to the reaction without peptide for each gel. […] Fluorescence polarization binding-data of fluorescein-modified LIR^ATG3 peptide binding to GABARAP. […] Fluorescence polarization data of fluorescein-modified LIR^ATG3 peptide binding to LC3A. […]\nFarnung et al. Supplementary Information and monitored using LC-MS analysis. […]"}}}
{"substance": "Ac-LEAIIEEDDGDGGWVDTYHAGGGK-OH [compound 5]", "values": [{"measurement": "Secondary structure by CD", "setting": "[1]", "value": "not structured in solution"}, {"measurement": "Block of ATG3 modification", "setting": "[2]", "value": "blocked ATG3 modification in a concentration-dependent manner"}]}
